The text below walks through data of patent publication US20120065203A1, “Methods of Reducing Serum Glucose and Triglyceride Levels and for Inhibiting Angiogenesis Using Substituted Indolealkanoic Acids” (The Institute for Pharmaceutical Discovery, LLC, priority 1998, published 2012).

In test [1] the target is human aldose reductase (hALR2) (Homo sapiens, UniProt P15121). Briefly: Inhibition of human aldose reductase (hALR2). The format is biochemical. The protocol: Representative compounds of the invention were tested for their potency, selectivity and efficacy as inhibitors of human aldose reductase.
Test [2] concerns STZ treated diabetic minipigs. Briefly: Wound healing in STZ treated diabetic minipigs. The format is in vivo, minipig. The settings on record: STZ diabetic minipigs with wounds, compared with untreated controls. The text has this:
These animals are compared with control STZ diabetic minipigs also having wounds but that are not treated with the compound.

Another test has as its system diabetic (db/db) mice. The conditions noted are these: for mean percent change in glucose (lowering): after four weeks. How it is done:
The mice are obese, extremely hyperglycemic and also hyperinsulinemic.
Male db/db mice (8 weeks old) were obtained from Jackson Laboratories and were allowed to acclimate for 1 week before the experiment commenced. A sample of blood was collected from the tail after which plasma glucose was isolated by centrifigation and the glucose concentration was measured in the plasma enzymatically on the COBAS automated clinical_analyzer equipped with a glucose kit that utilized hexokinas to quantitate the amount of glucose in a sample (Roche Diagnostic Systems, kit #47382). Mice with the lowest plasma glucose values were removed from the study and the remaining mice were randomized according to their individual plasma glucose values into 3 treatment groups (n=12 per group), control untreated db/db mice, 100 mg/kg/d compound treated db/db mice and 300_mg/kg/d compound treated db/db mice.
Treatment with the compound was carried out for 4 weeks during which time blood glucose levels were measured weekly from the tail using the One Touch II blood glucose meter (Lifescan, Inc). The blood glucose values of mice in the compound treated groups was compared to the blood glucose values of mice from the control untreated group by an analysis of variance followed by Dunett's Comparison Test (one-tailed).

For test [3], the system named is streptozotocin-induced diabetic rats. The conditions noted are these: STZ diabetic rats, 10 mg/kg daily by gavage, listed as test compound. The protocol:
Diabetes is induced in animals as follows: male Sprague-Dawley rats (150 g), supplied by Harlan Teklad (Madison, Wis.), are allowed to acclimate for 1 week and water is supplied ad libitum. […] STZ, 40 mg/kg, is prepared in 0.03 M citrate buffer, pH 4.5 and administered intraperitoneally after a 24-hr fast. Control animals receive citrate buffer.
Two hours after STZ injection, food is returned. Two days following STZ injection, blood glucose is measured and animals with <300 mg/dL are eliminated. Animals with blood glucose levels ≧300 mg/dL are randomized into diabetic control and treated groups.
In all, three groups of animals are monitored and compared. The groups comprise a (nondiabetic) control group (n=5); an untreated diabetic (control) group (n=7); and treated diabetic group (n=7). […] The nondiabetic and diabetic control groups are administered vehicle.
After the final dose (Day 8), all groups of animals are fasted for 4 hours and anesthetized with CO2, and blood is collected by cardiac puncture into EDTA tubes. The plasma is separated from the red blood cells by centrifugation. Plasma triglyceride levels are quantitated on an automated COBAS chemistry system utilizing the Roche reagent for Triglycerides (Cat #44119). This assay is a standard spectrophotometric enzyme assay that uses a Trinder reaction to measure the final product (Trinder, P., Ann Clin Biochem 6: […], 1969). […]

pIC50: −log10 of the molar value. Read-outs that look alike come from different tables or passages of the source.

Source text for rat aortic ring: Rats (less than 6 weeks old, approx 150 grams) are individually sacrificed via carbon dioxide asphyxiation. The abdomen and thorax are opened along the midline with scissors using known sterile techniques. The animals are placed recumbent on their right side, to allow displacement of the viscera. The abdominal and thoracic sections of the aorta are carefully separated from the dorsum by dissection along the longitudinal axis of the aorta. The isolated aorta is placed in a petri dish containing sterile, ice cold Hanks' balanced salt solution (Gibco BRL-Life Technologies, Rockville, Md.) for further micro-dissection under a dissecting microscope. The lumenal content of the aorta is dislodged by injection with Hanks, balanced salt solution via a syringe. Adherent adipose, loose connective tissue and segments of intercostal arteries are trimmed from the exterior of the aorta using sterile microsurgical instruments. The aorta is transferred to a clean petri dish containing fresh Hanks' balanced salt solution and the entire aorta is sectioned into 1 to 2 mm thick rings. The two end rings and any other rings which appear damaged are discarded. The aorta is maintained submerged in Hanks' balanced salt solution on ice while plating onto a 48-well plate.
Using a 48-well tissue culture plate, which is chilled on ice, in a tissue culture hood a 120 microliters of thawed Matrigel® (Becton Dickinson Labware, Bedford, Mass.) is plated onto each well using a sterile pipet tip. The Matrigel® is solidified by placing the culture plate for 30 minutes in a 37° C. humidified tissue culture incubator in the presence of 5% CO2. A single aortic ring is placed on edge, with one of its two cut surfaces resting on the Matrigel®, at the center of each well using a sterile curved forcep. The layout of the culture plate is such that the rings from multiple animals are placed in a single column on the plate. In this fashion, the experimental results represent observations based on six animals (n=6). […]

The pIC50 is −log10 of the IC50, conventionally taken in molar units. Lower therefore signals a high IC50. For `O=C(O)Cn1cc(Cc2nc3ccc(F)cc3s2)c2ccccc21` [Example 24, 3-[6-Fluorbenzothiazole-2-yl]methyl-indole-N-acetic Acid], in test [1], the pIC50 was 5.98.
As for `Cc1c(Cc2nc3c(F)c(F)cc(F)c3s2)c2ccccc2n1CC(=O)O` [Example 1, 2-methyl-3-(4,5,7-trifluorobenzothiazol-2-yl)methyl-indole-N-acetic acid], the “degree of wound healing” value in test [2] was “significant increase in the degree of wound healing”. For the same compound, the Blood glucose in the test with diabetic (db/db) mice (100 mg/kg/d in diet, Week 0, mean ± SD) was 323 ± 79 mg/dL; with diabetic (db/db) mice (100 mg/kg/d in diet, Week 2, mean ± SD), 284 ± 75 mg/dL; in the test with diabetic (db/db) mice (100 mg/kg/d in diet, Week 4, mean ± SD), 303 ± 79 mg/dL; in the test with diabetic (db/db) mice (300 mg/kg/d in diet, Week 0, mean ± SD), 313 ± 52 mg/dL; in the test with diabetic (db/db) mice (300 mg/kg/d in diet, Week 2, mean ± SD) it was 240 ± 85 mg/dL. Moreover, the “mean percent change in glucose (lowering)” value with diabetic (db/db) mice (100 mg/kg/d) turned out to be 12%; in the test with diabetic (db/db) mice (300 mg/kg/d), 40%. In test [3], the “Triglyceride lowering compared to diabetic” value was 68%. Also, the “Linear Microvascular Growth” value was 1.97 ± 0.66, n = 5 mm in the test on rat aortic ring (Intervention (Days 4-6), compound only on days 4-6, mean ± SD); 1.46 ± 0.48, n = 6 mm with rat aortic ring (Prevention (Days 1-6), 50 micromolar, mean ± SD); 2.31 ± 0.71, n = 5 mm with rat aortic ring (Removal: 50 micromolar days 1-3, compound removed days 4-6, mean ± SD).
